Data set [1] is described as follows: Aroma extract dilution analysis (AEDA) by GC-O of aroma isolates of fresh mango cultivars. As to conditions: GC-O on FFAP column; for FD factor H: Haden (H) mango cultivar aroma isolate, highest dilution at which the aroma was detectable; for FD factor M: Malindi (M) mango cultivar aroma isolate; for FD factor PS: Praya Sowoy (PS) mango cultivar aroma isolate; for FD factor RS: Royal Special (RS) mango cultivar aroma isolate; for FD factor WA: White Alfonso (WA) mango cultivar aroma isolate. From the text: The presently disclosed subject matter was developed in part by analytical analyses on regional mangos performed to avoid overlooking any key compounds that can greatly influence the natural flavorings. To overcome the lack of distinct cultivar flavors available for true-fruit mango tastes, the presently disclosed subject matter has created a flavor system using aroma extract dilution analysis (AEDA) on fresh fruit from various mango cultivars. In addition, sensory experiments with the flavor compositions of the formulas given together with omission experiments were used to determine the relative importance of some of the components in the manufactured flavorings. A Flavor Dilution (FD)-chromatogram of the odorants was obtained for the odorants perceived in aroma extracts of various mango samples. FD-factors reflect the highest dilution at which a substance is still smelled and these are typically determined by AEDA.
AEDA is known as a powerful screening method used for the detection of aroma compounds, which combines a quantitative gas chromatography olfactometry (GCO) procedure for determining the potency of odorants in food. Using FD values from the AEDA tests, a base flavor system using compounds found in all the cultivars was created. Next, cultivars were characterized by their differences and cultivar components were designed by combining compounds identified as contributing to the distinct differences. The base and cultivar flavors were confirmed by creating a flavor system and testing the flavor system in a model confectionery product.
Volatile compounds are extracted from the fruit samples. For example, compounds are extracted with diethyl ether and an aroma isolate was prepared via high vacuum distillation. The aroma isolate was then serially diluted to a range of dilutions from 2 to 1,024. The various dilutions are then analyzed by GCO.
The FD factor data depict the highest dilution at which an odorant is still detectable by GCO. FD factors are relative measurements. The measurement is the ratio of the initial concentration to its most dilute extraction. Such measurements are proportional to a compounds odor activity value (OAV), which is the ratio of the concentration to an odor threshold in the air.
Fresh ripe mangos were peeled, the seed was removed, and the flesh was cut into small 4 cm^3 sections. The sections were immediately frozen in liquid nitrogen, ground into a fine powder with a laboratory mill and sequentially extracted with freshly distilled diethyl ether (1×100 mL; 1×50 mL) on an autoshaker at room temperature for 10 minutes. After centrifugation (5000 rpm for 5 minutes), the supernatants were combined and the residue was discarded. The organic layer was then separated in a separatory funnel and the aqueous layer was discarded. The ether extract (total volume: 150 mL) was then subjected to high-vacuum distillation using the SAFE technique (Engel, W.; Bahr, W.; Schieberle, P., Solvent assisted flavour evaporation—a new and versatile technique for the careful and direct isolation of aroma compounds from complex food matrices. European Food Research and Technology 1999, 209, 237-241.). The distillation apparatus was thermostated at 40° C. and kept under high vacuum (10-5 mbar). The sample was dropped into the extraction flask of the apparatus over 40 minutes, after which the extraction was continued for an additional 30 minutes. At the completion of the extraction time, the vacuum was broken and the collection flask was removed. The sample was thawed at room temperature and dried over anhydrous sodium sulfate. The sample was then concentrated to approximately 2 ml using a Vigreux column (50×1 cm) held at 50° C. and finally concentrated (total volume: 200 uL) under a gentle stream of nitrogen. The aroma quality of the isolate was then evaluated to ensure that it closely matched the odor quality of the fresh ripe mango flesh.
An Agilent 6890 series GC system was used for GC-O analysis. […]

For data set [2] the following is noted: cited from earlier work; for recog. ppb: Table 21, odor thresholds from literature (footnotes a-g); for recognition (ppb) / detection (ppb): Table 8, representative threshold level; for recognition (ppb): point at which a specific taste is recognizable; for detection (ppb): point at which a taste is detected compared to a control such as water.
A short description of data set [3]: Odor threshold levels (recognition and detection) of odorants. As to conditions: Tables 1-5, relative to the other odorants of the same group. The text has this: As used herein, “threshold level” relates to an amount at which a flavor is detected or recognized. A detection level is the point at which a taste is detected as compared to a control such as water. A recognition level is the point at which a specific taste is recognizable.
Additional measurements can be used as a proxy for potency, whereby similar calculations can be configured to prepare a base blend. For example, threshold levels can be used to determine a reference point for potency. For example, threshold levels include detection levels, where a taste is detected in comparison to a control, for example water. Threshold levels also include recognition levels whereby a taste is specifically recognized, which is generally a higher level than a mere detection level. The threshold levels achieve an equivalent organoleptic effect whereby a specific target is either detectable or recognized.
By way of example, the following table provides representative threshold levels in ppb for both detection and recognition levels.
The specific odorant listed has been categorized one of the highest potency odorants within the noted class. As such, the highest potency relates to the littlest amount to be used in the composition. Therefore, relative potencies are then computed by orders of magnitude as detailed in the above Table. Additional threshold levels are discussed below in Example 4.
The following Example provides odor thresholds of weakest and strongest odorants with the different aroma groups, as well as alternative compounds for the first tier of odorants. These odorants are representative in defining the unique sensory attributes of the aroma isolates of the different cultivars.

Take `OCCc1ccccc1` [2-phenylethanol]: the “FD factor H” value in data set [1] stood at 128.

With `CC(=O)C1=NCCC1` [2-acetyl-1-pyrroline], in data set [1], the “FD factor H” value stood at 512, the “FD factor M” value is reported as 512 and the “FD factor PS” value turned out to be 128.

With `CC(=O)C(C)=O` [2,3-butandione], the recog. ppb in data set [2] was 2.9 ppb. Also, the “FD factor PS” value in data set [1] was determined as 32.

In the case of `CC(=O)CCC1=C(C)CCCC1(C)C` [dihydro-β-ionone], the “FD factor RS” value in data set [1] is 128.

For the compound `CC(=O)CC(C)(C)S` [4-mercapto-4-methyl-2-pentanone], in data set [2], the “recognition (ppb)” value is recorded as 0.0001 ppb and the recog. ppb was 0.0001 ppb.

Regarding `CCCCCCC1CCC(=O)O1` (stereo not drawn) [γ-decalactone], the recog. ppb in data set [2] is given as 2.6 ppb.

Turning to `CC/C=C\CC/C=C/C=O` [(E,Z)-2,6-nonadienal], in data set [2], the “recognition (ppb)” value is on record as 0.0091 ppb, the “detection (ppb)” value was 0.0045 ppb and the recog. ppb is listed as 0.0091 ppb. In addition, the “potency within odorant group (footnote *)” value (“potency within odorant group” for short) in data set [3] is given as “*Most potent”. Further, in data set [1], the “FD factor PS” value was 128.

In the case of `CCOC(=O)C(C)CC` (stereo not drawn) [ethyl-2-methybutanoate], in data set [2], the “recognition (ppb)” value was 0.063 ppb, the “detection (ppb)” value is 0.013 ppb and the recog. ppb is recorded as 0.063 ppb. Moreover, the “potency within odorant group” value in data set [3] is “*Most potent”. Moreover, the “FD factor H” value in data set [1] worked out at 512.

For `C=CC(=C)CCC=C(C)C` [myrcene], in data set [2], the “recognition (ppb)” value is on record as 4.9 ppb, the “detection (ppb)” value is recorded as 1.2 ppb and the recog. ppb is given as 4.9 ppb. Besides, in data set [1], the “FD factor M” value worked out at 128 and the “FD factor WA” value worked out at 128.

Regarding `CCCCCC(=O)C(C)C(C)=O` (stereo not drawn) [3-methyl-2,4-nonandione], the “FD factor PS” value in data set [1] stood at 128.

With `CCOC(=O)C(C)C` [ethyl-2-methypropanoate], the recog. ppb in data set [2] is 0.22 ppb. Further, the “FD factor H” value in data set [1] worked out at 512.

Take `CCCC1CCCC(=O)O1` (stereo not drawn) [δ-octalactone]: in data set [1], the “FD factor H” value is listed as 512, the “FD factor M” value amounted to 128 and the “FD factor WA” value stood at 128.

As for `CCCCCC1CCCC(=O)O1` (stereo not drawn) [δ-decalactone], the recog. ppb in data set [2] was 51 ppb.

Take `CCCC(=O)OCC` [ethyl butanoate]: the recog. ppb in data set [2] is 2.4 ppb. For the same compound, in data set [1], the “FD factor H” value worked out at 2048, the “FD factor PS” value was 128, the “FD factor RS” value came out at 32 and the “FD factor WA” value was 128.

For `CC/C=C\CC=O` [(Z)-3-hexenal], the recog. ppb in data set [2] is 0.21 ppb. Also, the “FD factor PS” value in data set [1] was determined as 128.

`CC1=CCC(C(C)(C)S)CC1` (stereo not drawn) [1-p-menthene-8-thiol]: the recog. ppb in data set [2] is recorded as 0.0001 ppb.

Consider `CC(=O)/C=C/C1=C(C)CCCC1(C)C` [β-ionone], for which, in data set [2], the “recognition (ppb)” value was 8.4 ppb, the “detection (ppb)” value is listed as 3.5 ppb and the recog. ppb is 8.4 ppb. Moreover, in data set [1], the “FD factor M” value was 32, the “FD factor RS” value turned out to be 512 and the “FD factor WA” value amounted to 512.

Consider `C=C/C(C)=C/CC=C(C)C` [β-(E)-ocimene], for which the recog. ppb in data set [2] is 34 ppb. For the same compound, the “FD factor WA” value in data set [1] was found to be 128.

For the compound `C=C/C=C/C=C\CCCCC` [1-(E,Z)-3,5-undecatriene], in data set [2], the “recognition (ppb)” value was 0.003 ppb and the recog. ppb is reported as 0.003 ppb. Further, the “potency within odorant group” value in data set [3] is “*Most potent”. In data set [1], the “FD factor H” value was determined as 512 and the “FD factor WA” value is listed as 512.

For `C=C/C(C)=C\CC=C(C)C` [β-(Z)-ocimene], in data set [2], the recog. ppb was 34 ppb. The “FD factor WA” value in data set [1] worked out at 512.

Take `COC1=C(C)OC(C)C1=O` (stereo not drawn) [4-methoxy-2,5-dimethyl-3(2H)-furanone]: the recog. ppb in data set [2] is given as 3400 ppb. In addition, the “FD factor RS” value in data set [1] was 128.

On to `CC/C=C/CC=O` [(E)-3-hexenal], for which the recog. ppb in data set [2] is on record as 160 ppb. Further, the “FD factor PS” value in data set [1] was 512.

`CC1=C(O)C(=O)C(C)O1` (stereo not drawn) [4-hydroxy-2,5-dimethyl-3(2H)-furanone]: the recog. ppb in data set [2] is 160 ppb. Further, in data set [1], the “FD factor H” value was 2048, the “FD factor M” value was determined as 2048, the “FD factor PS” value is 2048 and the “FD factor RS” value turned out to be 2048. For the same compound, the “FD factor WA” value in data set [1] worked out at 2048.

As to `CCOC(=O)CC(C)C` [ethyl-3-methylbutanoate], the recog. ppb in data set [2] is recorded as 0.11 ppb. Further, the “FD factor H” value in data set [1] was 2048.

For the compound `CCCCC1CCC(=O)O1` (stereo not drawn) [γ-octalactone], in data set [2], the “recognition (ppb)” value is given as 24 ppb, the “detection (ppb)” value is 6.5 ppb and the recog. ppb was 24 ppb. In addition, the “potency within odorant group” value in data set [3] is given as “*Most potent”. Further, in data set [1], the “FD factor H” value was found to be 512, the “FD factor M” value was determined as 512, the “FD factor PS” value stood at 128 and the “FD factor RS” value was determined as 512. Further, the “FD factor WA” value in data set [1] was determined as 512.

`CCc1ncc(C)nc1CC` [2,3-diethyl-5 methyl pyrazine]: in data set [1], the “FD factor RS” value is given as 128.

Regarding `C=CC=CC=CCC=CCC` [1,3,5,8-undecatetraene], in data set [1], the “FD factor M” value is listed as 512, the “FD factor RS” value stood at 512 and the “FD factor WA” value was found to be 128.

For `CCCC(=O)O` [butanoic acid], the recog. ppb in data set [2] is recorded as 7700 ppb. Moreover, in data set [1], the “FD factor PS” value is reported as 128.

In the case of `CSCCC=O` [3-(methylthio)-propanal], in data set [1], the “FD factor H” value is given as 512 and the “FD factor WA” value came to 32.

As for `CC1=C(O)C(=O)OC1C` (stereo not drawn) [3-hydroxy-4,5-dimethyl-2(5H)-furanone], in data set [2], the “recognition (ppb)” value is given as 1.1 ppb, the “detection (ppb)” value is recorded as 0.49 ppb and the recog. ppb was 1.1 ppb. In addition, in data set [3], the “potency within odorant group” value is on record as “*Most potent”.

As to `CCCCCC/C=C/C=O` [(E)-2-nonenal], in data set [2], the recog. ppb is recorded as 0.4 ppb. For the same compound, the “FD factor PS” value in data set [1] turned out to be 128.

(Values after US20160000127A1, “MANGO FLAVOR COMPOSITIONS” (MARS, INCORPORATED, priority 2013, published 2016).)
